Data on four compounds can be found in ChEMBL document CHEMBL6134898, “In Vitro ADME Profiling of PROTACs: Successes, Challenges, and Lessons Learned from Analysis of Clinical PROTACs from a Diverse Physicochemical Space” (J Med Chem, 2025).

By fraction unbound is commonly meant free concentration divided by total concentration. One may read the Papp A→B as how fast a substance crosses the layer from the apical side. Usually chromatographic logD stands for a lipophilicity value derived from retention on a column. Usually solubility stands for the dissolved amount per volume that the medium holds.

Values after ≈ are worked out from the molar mass of the structure shown.

A short description of data set [1]: Intrinsic clearance in monkey hepatocytes measured per million cells at 1 uM measured for 0.5 to 120 mins by LC-MS/MS analysis. The class given is ADME, cell-based, Macaca mulatta, Hepatocyte. To be noted: rhesus monkey, time 0.5-120 min, read-out: CLH.
Data set [2] can be described thus: Protein binding in dog plasma assessed as free fraction at 5 uM incubated for 18 hrs by LC-MS/MS analysis. The class given is ADME, cell-free, Canis lupus familiaris.
Data set [3] in a line: Protein binding in human plasma assessed as free fraction at 5 uM incubated for 18 hrs by LC-MS/MS analysis. The class given is ADME, cell-free.
Data set [4] is described as follows: Blood to plasma partitioning ratio in dog at 10 uM incubated for 30 mins by LC-MS/MS analysis. The class given is ADME, cell-free, Canis lupus familiaris. The note with it: whole blood.
Data set [5] in a line: Protein binding in rat hepatocytes assessed as free fraction at 5 uM incubated for 18 hrs by LC-MS/MS analysis. The class given is ADME, cell-based, Hepatocyte.
Data set [6] is described as follows: Apparent permeability across apical to basal side in human Caco-2 cells at 1 uM incubated for 120 mins by LC-MS/MS analysis. The class given is ADME, cell-based. In general terms: Caco-2 cells form a polarised layer with tight junctions and transporters.
Data set [7] can be described thus: Intrinsic clearance in dog hepatocytes measured per million cells at 1 uM measured for 0.5 to 120 mins by LC-MS/MS analysis. To be noted: time 0.5-120 min, read-out: CLH. The class given is ADME, cell-based, Canis lupus familiaris, Hepatocyte.
A short description of data set [8]: Intrinsic clearance in rat hepatocytes measured per million cells at 1 uM measured for 0.5 to 120 mins by LC-MS/MS analysis. The note with it: time 0.5-120 min, read-out: CLH. The class given is ADME, cell-based, Hepatocyte.
Data set [9] in a line: Protein binding in human plasma assessed as compound recovery at 5 uM incubated for 18 hrs by LC-MS/MS analysis. To be noted: read-out: Drug recovery. The class given is ADME, cell-free.
The nature of data set [10]: Stability in human plasma at 5 uM incubated for 18 hrs by LC-MS/MS analysis. The class given is ADME, cell-free. To be noted: read-out: Stability.
Data set [11] can be described thus: Intrinsic clearance in mouse hepatocytes measured per million cells at 1 uM measured for 0.5 to 120 mins by LC-MS/MS analysis. The class given is ADME, cell-based, Hepatocyte. To be noted: time 0.5-120 min, read-out: CLH.
The nature of data set [12]: Protein binding in monkey plasma assessed as free fraction at 5 uM incubated for 18 hrs by LC-MS/MS analysis. The class given is ADME, cell-free, Macaca mulatta. To be noted: rhesus monkey.
Data set [13] is described as follows: Apparent permeability across apical to basal side in human Caco-2 cells at 1 uM incubated for 120 mins followed by ACN addition by LC-MS/MS analysis. The class given is ADME, cell-based.
A short description of data set [14]: Intrinsic clearance in human hepatocytes measured per million cells at 1 uM measured for 0.5 to 120 mins by LC-MS/MS analysis. The class given is ADME, cell-based, Hepatocyte. The note with it: time 0.5-120 min, read-out: CLH.
Data set [15] can be described thus: Blood to plasma partitioning ratio in rat at 10 uM incubated for 30 mins by LC-MS/MS analysis. The class given is ADME, cell-free. To be noted: whole blood.
Data set [16] is described as follows: Protein binding in rat plasma assessed as free fraction at 5 uM incubated for 18 hrs by LC-MS/MS analysis. The class given is ADME, cell-free.
Data set [17] in a line: Blood to plasma partitioning ratio in human at 10 uM incubated for 30 mins by LC-MS/MS analysis. The class given is ADME, cell-free. The note with it: whole blood.
Data set [18] can be described thus: Lipophilicity, LogD of compound by Chromatography. The class given is physicochemical.
Data set [19] can be described thus: Protein binding in mouse plasma assessed as free fraction at 5 uM incubated for 18 hrs by LC-MS/MS analysis. The class given is ADME, cell-free.
A short description of data set [20]: Solubility of compound in FaSSIF at pH 6.5 measured after 24 hrs by UPLC analysis. The class given is physicochemical.
The nature of data set [21]: Solubility of compound in SGF at pH 1.2 measured after 24 hrs by UPLC analysis. The class given is physicochemical.
Data set [22] in a line: Solubility of compound in FeSSIF at pH 5 measured after 24 hrs by UPLC analysis. The class given is physicochemical.

In the case of `CNC(=O)COc1cc2cc(Nc3nc(N4CCC(O[C@H]5C[C@H](N6CCC(c7ccc8c(c7F)CN(C7CCC(=O)NC7=O)C8=O)CC6)C5)CC4)ncc3Cl)ccc2n(C(C)C)c1=O` (stereo partly drawn), the hepatocyte CLint at 1 µM in [1] was determined as 10 µL/min/1e6 cells; in data set [7], 8 µL/min/1e6 cells; in [8], 5 µL/min/1e6 cells; in data set [11], 5 µL/min/1e6 cells; in data set [14], 3 µL/min/1e6 cells. In addition, the fraction unbound at 18 h, 5 µM in data set [2] was 0.002; in [3], less than 0.007; in data set [5], 0.016; in data set [12], 0.007; in data set [16], 0.014; in data set [19], 0.005. Moreover, the blood plasma ratio at 0.5 h, 10 µM in [4] amounted to 0.7; in [15] it was 1.1; in data set [17] it was 0.8. Also, the apical-to-basolateral permeability (Papp A→B) at 2 h, 1 µM is less than 0.3 ×10⁻⁶ cm/s in data set [6] and 1.2 ×10⁻⁶ cm/s in data set [13]. Besides, the recovery at 18 h, 5 µM in [9] was found to be 43%. The remaining at 18 h, 5 µM in data set [10] was 7%. In addition, the chromatographic logD in data set [18] amounted to 3.7.
As to `COc1cc(-c2cn(C)c(=O)c3cnc(N4CCC4)cc23)cc(OC)c1CN1CCC(CN2CCC3(CC2)CN(c2ccc4c(c2)C(=O)N([C@H]2CCC(=O)NC2=O)C4)C3)CC1`, the hepatocyte CLint at 1 µM in data set [1] is 3 µL/min/1e6 cells; in [7], 5 µL/min/1e6 cells; in data set [8], less than 1 µL/min/1e6 cells; in [11] it was 5 µL/min/1e6 cells; in data set [14] it was less than 1 µL/min/1e6 cells. The free fraction (fraction unbound) at 18 h, 5 µM in [2] was 0.41; in data set [3], 0.29; in data set [5] it was 0.35; in [12] it was 0.427; in data set [16], 0.265; in data set [19], 0.232. Besides, the blood plasma ratio at 0.5 h, 10 µM was 2.4 in data set [4], 1.3 in data set [15] and 2.7 in data set [17]. The apical-to-basolateral permeability (Papp A→B) at 2 h, 1 µM in data set [6] is less than 0.1 ×10⁻⁶ cm/s; in data set [13], 0.1 ×10⁻⁶ cm/s. The recovery at 18 h, 5 µM in data set [9] is 65%. Moreover, the remaining at 18 h, 5 µM in data set [10] was 84%. In [18], this compound displayed a chromatographic logD of 1.9.
For `N#Cc1ccc(O[C@H]2CC[C@H](NC(=O)c3ccc(N4CCC(CN5CCN(c6cc7c(cc6F)C(=O)N([C@H]6CCC(=O)NC6=O)C7=O)CC5)CC4)nn3)CC2)cc1Cl`, the hepatocyte CLint at 1 µM in data set [1] was 5 µL/min/1e6 cells; in [7] it was less than 1 µL/min/1e6 cells; in data set [8], less than 1 µL/min/1e6 cells; in data set [11], 3 µL/min/1e6 cells; in data set [14], 2 µL/min/1e6 cells. The fraction unbound at 18 h, 5 µM was less than 0.001 in data set [3], 0.008 in [5] and less than 0.001 in data set [19]. Further, the solubility at 24 h in data set [20] worked out at 1.6 µg/mL (≈ 1.97 µM); in [21], 230 µg/mL (≈ 283 µM); in data set [22], 192 µg/mL (≈ 236 µM). Also, the figures for the blood plasma ratio at 0.5 h, 10 µM in data set [4], in data set [15] and in [17] were 0.6, 0.7 and 0.7, respectively. Further, the results for the apical-to-basolateral permeability (Papp A→B) at 2 h, 1 µM in [6] and in data set [13] were less than 0.1 ×10⁻⁶ cm/s and 0.1 ×10⁻⁶ cm/s, respectively. Moreover, the recovery at 18 h, 5 µM in [9] came out at 14%. Also, the remaining at 18 h, 5 µM in data set [10] is 1%. The same compound gave a chromatographic logD in data set [18] of 5.1.
Consider `COc1cc(O[C@H]2C(C)(C)[C@H](NC(=O)c3ccc(N4CCC(CN5CCN(c6ccc(C(=O)N[C@H]7CCC(=O)NC7=O)c(F)c6)CC5)CC4)cc3)C2(C)C)ccc1C#N` [LUXDEGALUTAMIDE], for which the hepatocyte CLint at 1 µM in data set [1] is 4 µL/min/1e6 cells; in data set [7], less than 1 µL/min/1e6 cells; in data set [8], 2 µL/min/1e6 cells; in [11], 4 µL/min/1e6 cells; in [14] it was less than 1 µL/min/1e6 cells. The fraction unbound at 18 h, 5 µM was 0.003 in data set [2]; less than 0.004 in data set [3]; 0.01 in [5]; 0.003 in [16]; 0.002 in data set [19]. Besides, the solubility at 24 h stood at 0.4 µg/mL (≈ 0.495 µM) in data set [20], 188 µg/mL (≈ 233 µM) in data set [21] and 3.8 µg/mL (≈ 4.7 µM) in [22]. Moreover, the blood plasma ratio at 0.5 h, 10 µM in data set [4] turned out to be 0.8; in [15], 0.7; in [17] it was 0.5. The apparent permeability from apical to basolateral (Papp A→B) at 2 h, 1 µM is less than 0.1 ×10⁻⁶ cm/s in data set [6] and 0.3 ×10⁻⁶ cm/s in data set [13]. Moreover, the recovery at 18 h, 5 µM in data set [9] amounted to 68%. In data set [10], the remaining at 18 h, 5 µM came out at 74%. Besides, the chromatographic logD in data set [18] was determined as 5.3.
